From patent US20140178411A1, “COMPOUNDS AND METHODS FOR THE TREATMENT OF CD20 POSITIVE DISEASES” (BIO-THERA SOLUTIONS, LTD., CO., priority 2012, published 2014)

Experiments:
[1] = system: human acute lymphoblastic leukemia line C.E.M.; details: Wolpert-DeFillippes et al. 1975; cited from earlier work
tubulin = details: 10 μL added to 100 μL 4 mg/ml tubulin, FIG. 1
Experimental: The effect of 3AA-MDC and related metabolites on the tubulin polymerization in vitro was assessed by HTS-Tubulin Polymerization Assay Kit (BK004P, Cytoskeleton, Inc., USA). According to the instruction of kit, pre-warm the 96-well plate to 37° C. for 30 min prior to starting the assay. At the same time, the spectrophotometer (SpectraMax, Molecular Devices, USA) was set as follow: wavelength, 405 nm; temperature, 37° C.; Kinetic, 31 cycles of 1 reading per minute. Make cold G-PEM buffer (990 μL General Tubulin Buffer+10 μL GTP Stock) and keep it on ice. Prepare 4 mg/ml tubulin, 200 nM L-3AA-MDC (N2′-deacetyl-N2′-(6-maleimido-1-oxo-hexyl)maytansine), or related compounds cys-3AA-MDC, or lys-mcc-MDC, 100 μM Paclitaxel, 100 μM Nocodazole, and 1 μM 206-3AA-MDC (3AA-MDC-antibody conjugate). Add 10 μL G-PEM, 3AA-MDC, Paclitaxel, Nocodazole and 206-3AA-MDC or related metabolites into the wells, and then add 100 μL 4 mg/ml tubulin to each well. Immediately place the plate into the spectrophotometer and start recording using the kinetic setup described above.

## COc1cc2cc(c1Cl)N(C)C(=O)C[C@H](OC(=O)[C@H](C)N(C)C(C)=O)[C@]1(C)O[C@H]1[C@H](C)[C@@H]1C[C@@](O)(NC(=O)O1)[C@H](OC)/C=C/C=C(\C)C2 [Maytansine]
[1]
  concentration that inhibits C.E.M. line (as low as): 10^−7 µg/mL

## CC(=O)O[C@H]1C(=O)[C@@]2(C)[C@H]([C@H](OC(=O)c3ccccc3)[C@]3(O)C[C@H](OC(=O)[C@H](O)[C@@H](NC(=O)c4ccccc4)c4ccccc4)C(C)=C1C3(C)C)[C@]1(OC(C)=O)CO[C@@H]1C[C@@H]2O [Paclitaxel]
tubulin; 100 μM Paclitaxel stock, 37° C., 405 nm
  relative activity of tubulin polymerization enhanced: about 3 fold

## COC(=O)Nc1nc2ccc(C(=O)c3cccs3)cc2[nH]1 [Nocodazole]
tubulin; 100 μM Nocodazole stock, 37° C., 405 nm
  relative activity of tubulin polymerization decreased: 2.5 fold

## COc1cc2cc(c1Cl)N(C)C(=O)C[C@H](OC(=O)[C@H](C)N(C)C(=O)CCCCCN1C(=O)C=CC1=O)[C@]1(C)OC1[C@H](C)[C@@H]1C[C@@](O)(NC(=O)O1)[C@H](OC)/C=C/C=C(\C)C2 (stereo partly drawn) [L-3AA-MDC, N2′-deacetyl-N2′-(6-maleimido-1-oxo-hexyl)maytansine]
tubulin; 200 nM stock, compared with Nocodazole
  effect on tubulin polymerization (in words): more significantly inhibited the tubulin polymerization
